Where “and” joins values, the source holds several entries; their conditions need not be identical. Equal values may be shown once.
molecular target: Nonstructural protein 3 (Zika virus, UniProt A0A024AXB9); experiment: Functional biochemical assay to identify treatments for viral infectious disease that targets Zika NS2B-NS3 protease. Utilizing a direct enzyme activity measurement method, reading the fluorescence intensity is used to characterize the relative potency of inhibitors as IC50.; design: species or system PRVABC59
Sequence (A0A024AXB9 whole entry): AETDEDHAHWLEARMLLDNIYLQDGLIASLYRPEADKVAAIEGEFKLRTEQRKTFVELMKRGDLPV

SMILES	IC50
Cc1nc(C2CCN(Cc3c[nH]c4ccccc34)CC2)sc1C(=O)O	99.3 µM
N[C@H]1C[C@H](CNC(=O)[C@@H](NC(=O)OCc2ccccc2)c2ccc(OCc3ccccc3)cc2)C1	> 99.5 µM
NCc1cccc(NC(=O)[C@@H](NC(=O)OCc2ccccc2)c2ccc(Br)cc2)c1	53.6 µM and 54.4 µM
NCc1cccc(NC(=O)[C@H]2Cc3ccccc3N2C(=O)OCc2ccccc2)c1	> 99.5 µM
NCc1ccc(C[C@H](NC(=O)c2ccccc2)C(=O)Nc2cccc(CN)c2)cc1	> 99.5 µM
O=C(O)c1ccc(C2CCN(Cc3c[nH]c4ccccc34)CC2)cc1	> 99.5 µM
NC[C@H]1C[C@H](NC(=O)[C@@H](NC(=O)OCc2ccccc2)c2ccc(OCc3ccccc3)cc2)C1	> 99.5 µM
NC(=O)C1CCN(Cc2c[nH]c3ccccc23)CC1	> 99.5 µM
OCc1cc(C2CCN(Cc3c[nH]c4ccccc34)CC2)no1	54.9 µM
Cc1cc(Cl)c(C)c(C(=O)O)c1NS(=O)(=O)c1ccc(Oc2ccccc2Cl)cc1	93.8 µM
C[C@@H](C(=O)Nc1cccc(CN)c1)c1ccc(OCc2ccccc2)cc1	> 99.5 µM
O=C(NC[C@H]1CCOC1)c1cc(Cl)ccc1NS(=O)(=O)c1ccc(Oc2ccccc2Cl)cc1	> 99.5 µM
O=C(O)c1cc(Cl)ccc1CS(=O)(=O)c1ccc(Oc2ccccc2Cl)cc1	> 99.5 µM
c1cc(CN2CCC(c3c[nH]c4cccnc34)CC2)c2cn[nH]c2c1	> 99.5 µM
CC(C)(C)OC(=O)NCc1cccc(NC(=O)[C@@H](NC(=O)OCc2ccccc2)c2ccc(O)cc2)c1	> 99.5 µM
Cc1cc(C(=O)O)c(NS(=O)(=O)c2ccc(Oc3ccccc3Cl)cc2)cc1F	21.2 µM
NCc1cccc(NC(=O)[C@@H](NC(=O)OCc2ccccc2)c2ccc(F)cc2)c1	> 99.5 µM
NCc1cccc(NC(=O)C[C@@H](NC(=O)OCc2ccccc2)c2ccc(OCc3ccccc3)cc2)c1	6.93 µM
CCn1cc(-c2ccccc2)nc(N2CC[C@@H](CO)C2)c1=O	> 99.5 µM
Cn1cc(C(=O)O)c(NS(=O)(=O)c2ccc(Oc3ccccc3Cl)cc2)n1	> 99.5 µM
NCc1cccc(NC(=O)[C@@H](Cc2ccccc2)NC(=O)OCc2ccccc2)c1	> 99.5 µM
COc1ccc(S(=O)(=O)Nc2cc(F)c(Cl)cc2C(=O)NCC(C)C)cc1	> 99.5 µM
NCc1cccc(NC(=O)[C@@H](NC(=O)OCc2ccccc2)c2c(F)cccc2F)c1	> 99.5 µM
O=C(O)c1cc(Cl)ccc1NS(=O)(=O)c1ccc(Oc2ccccc2)cc1	70.7 µM
Cc1cnn(-c2cc(C(=O)O)c(NS(=O)(=O)c3ccc(Oc4ccccc4Cl)cc3)cc2F)c1	10.6 µM
CCn1cc(Cl)nc(N2CC[C@@H](CO)C2)c1=O	> 99.5 µM

SMILES	IC50
NC(=O)[C@H](c1c[nH]c2ccccc12)N1CCC(c2cnc3ccc[nH]c2-3)CC1	96.5 µM
O=C(O)c1cc(OC2CCOCC2)c(F)cc1NS(=O)(=O)c1ccc(Oc2ccccc2Cl)cc1	37 µM
OC[C@H]1CCN(c2cncc(N3CCOCC3)n2)C1	> 99.5 µM
C#CCn1ccnc(N2CC[C@H](CO)C2)c1=O	> 99.5 µM
c1ccc(-c2csc(C3CCN(Cc4c[nH]c5ccccc45)CC3)n2)cc1	22.4 µM
O=S(=O)(c1ccc(Oc2ccccc2Cl)cc1)n1ccc2cc(Cl)ccc21	> 99.5 µM
Cc1cc(C(=O)O)c(NS(=O)(=O)c2ccc(Oc3ccccc3)cc2)cc1F	68.5 µM
CC(C)Oc1cncc(N2CC[C@@H](CO)C2)c1	> 99.5 µM
O=C(O)c1cc(Cl)c(Cl)cc1NS(=O)(=O)c1ccc(Oc2ccccc2Cl)cc1	9.06 µM
c1ccc(C2CCN(Cc3c[nH]c4ccccc34)CC2)nc1	34.7 µM
Cn1cc(NS(=O)(=O)c2ccc(Oc3ccccc3Cl)cc2)c(C(=O)O)n1	> 99.5 µM
O[C@@H]1CN(Cc2c[nH]c3ccccc23)C[C@H]1c1c[nH]c2ccccc12	> 99.5 µM
CCn1ccnc(-n2cc([C@@H]3NC(=O)NC3=O)c3ccccc32)c1=O	> 99.5 µM
CCn1ccc2cc(CN3CCC(c4c[nH]c5cccnc45)CC3)ccc21	> 99.5 µM
CCn1cc(-c2ccnc(C)c2)nc(N2CC[C@@H](CO)C2)c1=O	> 99.5 µM
NCc1cccc(NC(=O)[C@@H](N)c2ccc(OCc3ccccc3)cc2)c1	> 99.5 µM
NCc1cccc(NC(=O)[C@H](NC(=O)OCc2ccccc2)c2ccc(OCc3ccccc3)cc2)c1	6.93 µM
O=C(O)c1cc(Cl)c(F)cc1NS(=O)(=O)c1ccc(Oc2ccccc2Cl)cc1	10.4 µM
NCc1cccc(CNC(=O)[C@@H](NC(=O)OCc2ccccc2)c2ccc(OCc3ccccc3)cc2)c1	19 µM and 11.6 µM
O=C(O)c1cc(Oc2ccc(F)cc2)c(F)cc1NS(=O)(=O)c1ccc(Oc2ccccc2Cl)cc1	3.67 µM
CCn1ccc(-c2ccc([C@@H](NC(=O)OCc3ccccc3)C(=O)Nc3cccc(CN)c3)cc2)n1	> 99.5 µM
COC(=O)c1cc(Cl)ccc1NS(=O)(=O)c1ccc(Br)cc1	> 99.5 µM
CC(C)CNC(=O)c1cc(Cl)c(F)cc1NS(=O)(=O)c1ccc(Oc2ccccc2Cl)cc1	7.81 µM
O=C(O)c1c(NS(=O)(=O)c2ccc(Oc3ccccc3Cl)cc2)ccc(Cl)c1F	54.1 µM
COC(=O)[C@@H]1CC2(CC[C@@H]1NS(=O)(=O)c1ccc(Oc3ccccc3Cl)cc1)CC2	> 99.5 µM
c1cnc2c(C3CCN(Cc4c[nH]c5ncccc45)CC3)c[nH]c2c1	> 99.5 µM

SMILES	IC50
CCn1cc(C(=O)NC)nc(N2CC[C@@H](CO)C2)c1=O	> 99.5 µM
NCc1cccc(CNC(=O)[C@H](NC(=O)OCc2ccccc2)c2ccc(OCc3ccccc3)cc2)c1	13.1 µM
CCn1cc(C#N)nc(N2CC[C@@H](CO)C2)c1=O	> 99.5 µM
NCc1cccc(NC(=O)[C@@H]2c3ccsc3CCN2C(=O)OCc2ccccc2)c1	> 99.5 µM
O=C(O)c1cc2c(cc1NS(=O)(=O)c1ccc(Oc3ccccc3Cl)cc1)CCC2	17.5 µM
NCc1cccc(NC(=O)[C@@H](NC(=O)OCc2ccccc2)c2ccc(-c3ccccc3F)cc2)c1	8.51 µM
NCc1cc(Cl)ccc1NS(=O)(=O)c1ccc(Oc2ccccc2Cl)cc1	> 99.5 µM
c1cnc2c(CN3CCC(c4c[nH]c5cccnc45)CC3)c[nH]c2c1	44.4 µM
COC(=O)c1cc(Cl)ccc1NS(=O)(=O)c1ccc(Oc2ccccc2Cl)cc1	> 99.5 µM
O=C(O)[C@H]1CCCC[C@@H]1NS(=O)(=O)c1ccc(Oc2ccccc2Cl)cc1	> 99.5 µM
O=C(NCC1CC1)c1cc(Cl)cc(NS(=O)(=O)c2ccc(Oc3ccccc3Cl)cc2)c1	49.9 µM
NCc1cccc(NC(=O)c2cc(Cl)cc(NC(=O)OCc3ccccc3)c2)c1	4.79 µM
O=C(O)[C@@H]1CC2(CC[C@@H]1NS(=O)(=O)c1ccc(Oc3ccccc3Cl)cc1)CC2	> 99.5 µM
O=C(NCC(F)(F)F)c1cc(Cl)c(F)cc1NS(=O)(=O)c1ccc(Oc2ccccc2Cl)cc1	10.6 µM
COC(=O)c1cc(Cl)ccc1NS(=O)(=O)c1ccc(Cl)nc1	> 99.5 µM
NCc1cccc(NC(=O)CN(C(=O)OCc2ccccc2)c2ccc(OCc3ccccc3)cc2)c1	14.5 µM
COc1cc(N[C@@H](C(=O)N2CCc3ccc(OC(F)(F)F)cc32)c2ccc(Cl)cc2)cc(OCCCC(=O)O)c1	20.4 µM
NCc1cccc(NC(=O)[C@@H](NC(=O)OCc2ccccc2)c2cccnc2)c1	> 99.5 µM
NCc1cccc(NC(=O)[C@H](NC(=O)OCc2ccccc2)C2CCCCC2)c1	> 99.5 µM
O=C(O)c1ccsc1NS(=O)(=O)c1ccc(Oc2ccccc2Cl)cc1	27.8 µM
O=C(O)c1cc(Cl)ccc1NS(=O)(=O)c1ccc(Br)cc1	> 99.5 µM
NCc1cccc(NC(=O)c2cc(OCc3ccccc3)ccc2CNC(=O)OCc2ccccc2)c1	21.1 µM
O=C(O)c1cc(Cl)ccc1S(=O)(=O)Nc1ccc(Oc2ccccc2Cl)cc1	48 µM
O=C(O)[C@@H]1CCCC[C@H]1NS(=O)(=O)c1ccc(Oc2ccccc2Cl)cc1	> 99.5 µM
O=C(O)c1cc(F)c(F)cc1NS(=O)(=O)c1ccc(Oc2ccccc2Cl)cc1	31.9 µM
O=C(N[C@@H]1CCc2cn[nH]c2C1)c1cccc2c1NC(=O)[C@]1(CCCN1)C2	> 99.5 µM

SMILES	IC50
Cc1cc(-c2ccc([C@@H](NC(=O)OCc3ccccc3)C(=O)Nc3cccc(CN)c3)cc2)cs1	3.94 µM
NCc1cccc(NC(=O)c2ccc(OCc3ccccc3)cc2)c1	> 99.5 µM
CN(C(=O)[C@@H](NC(=O)OCc1ccccc1)c1ccc(OCc2ccccc2)cc1)c1cccc(CN)c1	> 99.5 µM
O=C(O)c1nscc1NS(=O)(=O)c1ccc(Oc2ccccc2Cl)cc1	> 99.5 µM
NC1(c2cccc(NC(=O)[C@@H](NC(=O)OCc3ccccc3)c3ccc(OCc4ccccc4)cc3)c2)CCC1	> 99.5 µM
O=C(O)c1ccn(C2CCN(Cc3c[nH]c4ccccc34)CC2)n1	> 99.5 µM
OC[C@H]1CCN(c2ccnc(C(F)F)c2)C1	> 99.5 µM
CCn1cc(-c2cnccc2C)nc(N2CC[C@@H](CO)C2)c1=O	> 99.5 µM
O=C(NCc1cnn(CCO)c1)c1cccc2c1NC(=O)[C@]1(CCCN1)C2	> 99.5 µM
O=C(O)c1cc(NS(=O)(=O)c2ccc(Oc3ccccc3Cl)cc2)ccc1Cl	> 99.5 µM
CCn1ccnc(N2C[C@@H](OC(=O)OC)[C@H](c3c[nH]c4ccccc34)C2)c1=O	> 99.5 µM
Cc1cccc([C@@H](NC(=O)OCc2ccccc2)C(=O)Nc2cccc(CN)c2)n1	> 99.5 µM
Cn1cc(CN2CCC(c3c[nH]c4cccnc34)CC2)c2ccccc21	> 99.5 µM
CC(C)(C)OC(=O)NCc1cccc(NC(=O)[C@@H](NC(=O)OCc2ccccc2)c2cccc(O)c2)c1	> 99.5 µM
Cc1cc(C=O)c(C)n1-c1cccc(C(=O)N2CCN(C)CC2)c1	> 99.5 µM
O=C(O)[C@@H]1CCCC[C@@H]1NS(=O)(=O)c1ccc(Oc2ccccc2Cl)cc1	> 99.5 µM
NCc1ccc(C[C@H](NC(=O)OCc2ccccc2)C(=O)Nc2cccc(CN)c2)cc1	33.4 µM
COc1ccc(S(=O)(=O)Nc2cc(F)c(Cl)cc2C(=O)O)cc1	> 99.5 µM
COc1cc(NS(=O)(=O)c2ccc(Oc3ccccc3Cl)cc2)c(C(=O)O)cc1Cl	16.3 µM
Cc1cc(C(=O)N[C@@H]2CC[C@@H]3CN(C)C[C@@H]32)sc1C=O	> 99.5 µM
Cc1ncc(-c2ccc([C@@H](NC(=O)OCc3ccccc3)C(=O)Nc3cccc(CN)c3)cc2)s1	27.2 µM
OC[C@H]1CCN(c2cnc3ccccc3n2)C1	> 99.5 µM
CCn1ccnc(N2C[C@H](c3c[nH]c4ccccc34)[C@H](OC(C)=O)C2)c1=O	> 99.5 µM
